# Measured values reported in PMC9780326, “Venom composition and pain-causing toxins of the Australian great carpenter bee Xylocopa aruana” (Scientific Reports, 2022).
# Like-named read-outs stand apart in the source and are kept apart here. No end group written: not given here.
# How the values were obtained:
# [1] = cited from earlier work
# Text: By far the most studied bee venom is that of the Western honeybee Apis mellifera. Its venom is dominated by a 26-residue cysteine-free amphipathic peptide known as melittin which makes up 40–60% of the dry weight of the venom. Another major components is venom phospholipase-A2 (PLA2; 10–12% dry weight), with smaller amounts of histamine (5–10%), venom hyaluronidase (1–2%) and the small disulfide-rich peptides apamin (3%) and mast cell-degranulating (MCD)-peptide (2%)[4]. Other reported components are present in trace amounts.
# mice [2] = assay: Paw swelling (paw thickness) after intraplantar injection; format: in vivo, male C57BL/6J mice; conditions: 200 pmol + venom PLA2 (20 pmol)
# HEK293AD cells = assay: Whole-cell patch-clamp, leak current in HEK293AD cells (QPatch 16X); format: cell-based
# Method: The mature peptide of XYTX1-Xa1a shares a similar primary structure with Xac-1, Xac-2 and melectin. […] We hypothesised that XYTX1-Xa1a would share the same activity. We tested, by whole-cell patch-clamp electrophysiology, the capacity of XYTX1-Xa1a to directly induce leak currents in cell membranes. For these experiments we used HEK293AD cells, which lack appreciable expression of the ion channels found in neurons. At 4 min after application of XYTX1-Xa1a (30 μM) we recorded leak currents at test potentials ranging from − 60 to + 60 mV in 10-mV increments from a holding potential of 0 mV every 6 s. At + 60 mV, we recorded currents of 3.3 ± 0.6 nA (mean ± SEM, n = 6 cells) compared with 0.08 ± 0.02 nA (n = 5 cells) for time-matched negative controls (application of extracellular solution (ECS)) (Fig. 3a–c).
# (a) Representative current traces in HEK293AD cells at voltages of − 60 to + 60 mV (10 mV steps) acquired before application and 2 min after application of (a) extracellular solution (ECS) or (b) 30 μM XYTX1-Xa1a. […] Data are expressed as mean ± SEM (n = 5–6 cells) and fitted to a simple linear regression. […]
# HEK293AD cells (American Type Culture Collection) were cultured as previously described. […] From a holding potential of 0 mV each recorded cell was subjected to a series of 50-ms voltage pulses that ranged from − 60 to + 60 mV in 10-mV increments. […]
# F11 cells = format: cell-based, mouse neuroblastoma × rat DRG cell line; conditions: FLIPR, Calcium 4; peptide in PSS + 0.1% BSA, 300 s; mean ± SEM, n = 6; read-out: EC50, increase of [Ca2+]i in F11 cells
# Method: F11 (mouse neuroblastoma × DRG neuron hybrid; European Collection of Authenticated Cell Cultures) were cultured as previously described. Cells were maintained on Ham’s F12 media supplemented with 10% FBS, 100 µM hypoxanthine, 0.4 µM aminopterin, and 16 µM thymidine (Hybri-Max, Sigma Aldrich). 384-well imaging plates (Corning, Lowell, MA, USA) were seeded 24 h prior to calcium imaging, resulting in ~ 90% confluence at the time of imaging. Cells were loaded for 30 min at 37 °C with Calcium 4 assay component A in physiological salt solution (PSS; 140 mM NaCl, 11.5 mM D-glucose, 5.9 mM KCl, 1.4 mM MgCl2, 1.2 mM NaH2PO4, 5 mM NaHCO3, 1.8 mM CaCl2, 10 mM HEPES) according to the manufacturer’s instructions (Molecular Devices, Sunnyvale, CA). Ca^2+ responses were measured using a FLIPR^TETRA fluorescent plate reader equipped with a CCD camera (Ex: 470 to 490 nm, Em: […]) (Molecular Devices, Sunnyvale, CA). Signals were read every second for 10 s before, and 300 s after, the addition of peptide (in PSS supplemented with 0.1% BSA).
# Data were plotted and analysed using Prism v9.0.0 (GraphPad Software, San Diego, CA, USA). For calcium imaging experiments of mouse DRG neurons and F11 cells, treatment groups were compared using unpaired t-tests. […]
# mice [3] = format: in vivo, male C57BL/6J mice; conditions: for pain behaviours on co-injection with venom PLA2: 200 pmol + venom PLA2 (20 pmol); for spontaneous pain behaviours: 200 pmol alone, 20 µL
# [4] = tested on: mouse dorsal root ganglion (DRG) cells; assay: Calcium imaging assay of mouse DRG neurons; format: cell-based
# Method: Figure 5 Pain-causing effects of X. aruana venom components. (a,b) Application of XYTX1-Xa1a (10 μM) to DRG cells produced an immediate and sustained, non-cell-specific increase in [Ca^2+]i. (c) Potency of XYTX1-Xa1a and melittin in F11 cells, as monitored by changes in [Ca^2+]i. (d–f) The increase in [Ca^2+]i caused by XYTX1-Xa1a was potentiated by the presence of venom PLA2 (1 µM), but not XYTX2-Xa2a (1 μM). **P < 0.01 (unpaired t-test). […] Data are expressed as mean ± SEM (n = 3–6). […] Data are expressed as mean ± SEM (n = 3–6). *P < 0.05; **P < 0.01; ****P < 0.0001 (one way-ANOVA with Tukey’s multiple comparisons).
# DRG cells were isolated from 4- to 6-week-old-male C57BL/6 mice that were purchased from the Animal Resources Centre (WA, Australia). DRGs were dissociated, then cells were plated in Dulbecco’s Modified Eagle’s Medium (DMEM; Gibco, MD, USA) containing 10% fetal bovine serum (FBS) (Assaymatrix, VIC, Australia) and penicillin/streptomycin (Gibco) on a 96-well poly-D-lysine-coated culture plate (Corning, ME, USA) and maintained overnight. Cells were loaded with Fluo-4 AM calcium indicator, according to the manufacturer’s instructions (ThermoFisher Scientific, MA, USA). After loading (1 h), the dye-containing solution was replaced with assay solution (1× Hanks’ balanced salt solution, 20 mM HEPES). Images were acquired at 10× objective at 1 frame/s (excitation 485 nm, emission 521 nm). Fluorescence corresponding to [Ca^2+]i of ~ 250 cells per experiment was monitored in parallel using an Nikon Ti-E Deconvolution inverted microscope, equipped with a Lumencor Spectra LED Lightsource. Baseline fluorescence was monitored for 30 s. At 30 s, assay solution was replaced with either assay solution, or assay solution containing venom PLA2 (1 µM) or XYTX2-Xa2a (1 µM), then at 1 min with XYTX1-Xa1a (in assay solution ± venom PLA2 (1 µM) or XYTX2-Xa2a (1 µM)) and monitored for 2 min before being replaced with assay solution and then KCl (30 mM; positive control). Experiments involving the use of mouse tissue were approved by the University of Queensland Animal Ethics Committee (UQ AEC; approval number TRI/IMB/093/17).
# Data were plotted and analysed using Prism v9.0.0 (GraphPad Software, San Diego, CA, USA). For calcium imaging experiments of mouse DRG neurons and F11 cells, treatment groups were compared using unpaired t-tests. For analysis of spontaneous pain, sum of pain behaviour counts at 30 min of treatment groups were compared using one-way ANOVA with Tukey’s multiple comparisons test. Statistical significance was defined as P < 0.05. All data are presented as mean ± SEM.
# [5] = tested on: Shaker-like voltage-gated potassium (KV) channel KV1.1; conditions: cited from earlier work
# mice [6] = format: in vivo, male C57BL/6J mice
# [7] = tested on: Shaker-like voltage-gated potassium (KV) channel KV1.2; conditions: cited from earlier work
# [8] = tested on: mammalian small conductance calcium-activated potassium (KCa, SK) channel KCa2.2; conditions: cited from earlier work
# Text: XYTX2-Xa2a is similar in sequence to Bombus and Apis MCD-peptides and apamin. Apamin is a blocker of the mammalian small conductance calcium-activated potassium (KCa, SK) channel KCa2.2[20], while Apis MCD peptide is a blocker of Shaker-like voltage-gated potassium (KV) channels KV1.1 and KV1.2[21]. We hypothesised that XYTX2-Xa2a might share similar activity. Thus, we tested XYTX2-Xa2a for activity on human KV1.1, KV1.2, KV1.3, KCa2.1 and KCa2.2.
compound,measurement,setting,value
CC[C@H](C)[C@H](NC(=O)CN)C(=O)NCC(=O)N[C@@H](C)C(=O)N[C@H](C(=O)N[C@@H](CC(C)C)C(=O)N[C@@H](CCCCN)C(=O)N[C@H](C(=O)N[C@@H](CC(C)C)C(=O)N[C@H](C(=O)N[C@H](C(=O)NCC(=O)N[C@@H](CC(C)C)C(=O)N1CCC[C@H]1C(=O)N[C@@H](C)C(=O)N[C@@H](CC(C)C)C(=O)N[C@H](C(=O)N[C@@H](CO)C(=O)N[C@@H](Cc1c[nH]c2ccccc12)C(=O)N[C@H](C(=O)N[C@@H](CCCCN)C(=O)N[C@@H](CCCNC(=N)N)C(=O)N[C@@H](CCCCN)C(=O)N[C@@H](CCCNC(=N)N)C(=O)N[C@@H](CCC(N)=O)C(=O)N[C@@H](CCC(N)=O)C(N)=O)[C@@H](C)CC)[C@@H](C)CC)[C@@H](C)O)[C@@H](C)O)C(C)C)C(C)C [melittin],pore formation,[1],can form pores in cell membranes
same,paw swelling,mice [2],caused paw swelling
same,leak current in HEK293AD cells,"HEK293AD cells; 10 μM melittin, 2 min after addition, n = 5 cells, Fig. S4",causes a leak current in HEK293AD cells
same,EC50,F11 cells,1.2 ± 0.1 µM
same,pain behaviours on co-injection with venom PLA2,mice [3],potentiated by co-injection with 20 pmol venom PLA2
same,spontaneous pain behaviours,mice [3]; shallow intraplantar,caused spontaneous pain behaviours
GFLSILKKLPLILKHLP-NH2 [XYTX1-Xa1a],neurons with increase of [Ca2+]i,"[4]; 10 μM (Fig. 5 legend), alone, mean ± SEM",49.4 ± 3.2%
same,"neurons activated, in the presence of XYTX2-Xa2a","[4]; with XYTX2-Xa2a (1 μM), mean ± SEM",45.8 ± 5.5%
same,cell lysis in the presence of venom PLA2,"[4]; with venom PLA2 (1 µM), leakage of dye into extracellular media",increased cell lysis
same,"neurons activated, in the presence of venom PLA2","[4]; with venom PLA2 (1 µM), mean ± SEM",93.2 ± 6.5%
same,paw swelling,mice [2],caused paw swelling
same,leak current at + 60 mV,"HEK293AD cells; 30 μM, 4 min after application, holding potential 0 mV, mean ± SEM, n = 6 cells, negative control ECS 0.08 ± 0.02 nA (n = 5 cells)",3.3 ± 0.6 nA
same,EC50,F11 cells,5.2 ± 0.7 µM
same,pain behaviours on co-injection with venom PLA2,mice [3],increased (frequency and duration)
same,spontaneous pain behaviours,mice [3]; shallow intraplantar,caused spontaneous pain behaviours
"MCD-peptide: mast cell-degranulating (MCD)-peptide of A. mellifera (Uniprot: P01499), purchased from Alomone labs (IKCNCKRHVIKPHICRKICGKN; UniProt P01499 28-49, looked up)",block of KV1.1,[5],blocker
same,paw-withdrawal threshold to a mechanical stimulus versus negative control (saline),"mice [6]; mouse, in vivo",no difference to negative control (saline) injection
same,block of KV1.2,[7],blocker
same,pain behaviour counts versus control,"mice [3]; mouse, in vivo",not different to control
"apamin: A. mellifera apamin (Uniprot: P01500), purchased from Alomone labs (CNCKAPETALCARRCQQH; UniProt P01500 28-45, looked up)",block of mammalian KCa2.2,[8],blocker
same,paw-withdrawal threshold to a mechanical stimulus versus negative control (saline),"mice [6]; 2 pmol/paw intraplantar, 1 and 4 h",no difference to negative control (saline) injection
same,pain behaviour counts versus control,"mice [3]; 2 pmol alone, shallow intraplantar",not different to control
